US9868750B2, “4,5-diarylimidazole derivatives as HDAC inhibitors” (CHARITÉ—UNIVERSITÄTSMEDIZIN BERLIN, priority 2014, dated 2018)
Where a name gives a salt, the structure may show the parent alone. Read-outs that look alike come from different tables or passages of the source.

How the values were obtained:
recombinant human HDAC1 = recombinant human HDAC1 (Homo sapiens, UniProt Q13547); test: Fluorescence-based HDAC activity assay, recombinant HDAC1; details: for fold less efficacious than vorinostat on HDAC1: relative to vorinostat IC50
Protocol: (§1) Briefly, cell pellets from mass cultures were resuspended and incubated in cell extraction buffer (20 mM HEPES, 10 mM KCl, 0.1 mM EDTA, 0.1 mM EGTA, 1.5 mM MgCl2, 0.5 mM DTT) containing 0.1% Triton X-100 to lyse cell membranes and leave intact nuclei. After centrifugation (3,000 g, 2 min), the supernatant containing cytosolic proteins was aspirated from the nuclei pellet and the protein concentration of the cytosolic fraction was determined by a standard Bradford assay (Pierce/Thermo Scientific).
(§2) A fluorescence-based HDAC activity assay was used to assess the compound specificity for distinct HDAC classes. […] The Fluor-de-Lys substrate used allows to measure broad-spectrum HDAC activity from extracts or recombinant protein.

518A2 melanoma cells = test: Western blot of 518A2 cell lysates: caspase-9 cleavage and histone H2B acetylation; type: cell-based, human; details: 518A2 cells; for acetylation of histone proteins (H2B) and alpha-tubulin after drug treatment: Western blot
Protocol: Western blot analysis of 518A2 cell lysates after drug treatment (3-24 h).

[1] = tested on: EGF-stimulated MCF-7/Topo cells; test: Matrigel-Transwell-Migration Assay; type: cell-based; details: EGF 200 ng/mL, 48 h
Protocol: FIG. 6: Influence of imidazole-based HDAC inhibitors Et-Animacroxam (compound 3) and Bimacroxam (compound 4) on resistance factors in tumor cell lines. A: Western blot analysis of Akt-phosphorylation (phospho-Akt) in 518A2 and MCF-7/Topo cell lysates (10 μg protein each) after 6 h of incubation. […] The amount of invasive cells was determined after calcein treatment via fluorescence measurement and DMSO-treated controls without EGF were set to 100%.

[2] = tested on: resistant colon (HT-29) cell line; test: Growth inhibition (MTT) in HT-29 colon cancer cells; type: cell-based, human
[3] = tested on: non-malignant fibroblasts (CF, chicken fibroblasts); test: Growth inhibition in chicken fibroblasts; type: cell-based; details: Gallus gallus, Fibroblast, 72 h
[4] = tested on: 1411HP xenograft (Cisplatin-resistant testicular cancer); test: 1411HP xenograft model; type: in vivo, mouse; details: 150 mg/kg i.p.
Protocol: FIG. 9: Activity of Et-Animacroxam (compound 3) in the 1411HP xenograft model (left: before treatment; right: 24 h after treatment with 150 mg/kg i.p. of Et-Animacroxam).

Tolerance in Balb/c mice = type: in vivo; details: two Balb/c mice
Source text: FIG. 8: Tolerance of Et-Animacroxam (compound 3) in two Balb/c mice (x-axis: day 1-7; y-axis: weight in gram).

recombinant human HDAC6 = target: T1, recombinant human HDAC6 (Homo sapiens, UniProt Q9UBN7); test: Fluorescence-based HDAC activity assay, recombinant HDAC6
T1 sequence (Q9UBN7 1-1215): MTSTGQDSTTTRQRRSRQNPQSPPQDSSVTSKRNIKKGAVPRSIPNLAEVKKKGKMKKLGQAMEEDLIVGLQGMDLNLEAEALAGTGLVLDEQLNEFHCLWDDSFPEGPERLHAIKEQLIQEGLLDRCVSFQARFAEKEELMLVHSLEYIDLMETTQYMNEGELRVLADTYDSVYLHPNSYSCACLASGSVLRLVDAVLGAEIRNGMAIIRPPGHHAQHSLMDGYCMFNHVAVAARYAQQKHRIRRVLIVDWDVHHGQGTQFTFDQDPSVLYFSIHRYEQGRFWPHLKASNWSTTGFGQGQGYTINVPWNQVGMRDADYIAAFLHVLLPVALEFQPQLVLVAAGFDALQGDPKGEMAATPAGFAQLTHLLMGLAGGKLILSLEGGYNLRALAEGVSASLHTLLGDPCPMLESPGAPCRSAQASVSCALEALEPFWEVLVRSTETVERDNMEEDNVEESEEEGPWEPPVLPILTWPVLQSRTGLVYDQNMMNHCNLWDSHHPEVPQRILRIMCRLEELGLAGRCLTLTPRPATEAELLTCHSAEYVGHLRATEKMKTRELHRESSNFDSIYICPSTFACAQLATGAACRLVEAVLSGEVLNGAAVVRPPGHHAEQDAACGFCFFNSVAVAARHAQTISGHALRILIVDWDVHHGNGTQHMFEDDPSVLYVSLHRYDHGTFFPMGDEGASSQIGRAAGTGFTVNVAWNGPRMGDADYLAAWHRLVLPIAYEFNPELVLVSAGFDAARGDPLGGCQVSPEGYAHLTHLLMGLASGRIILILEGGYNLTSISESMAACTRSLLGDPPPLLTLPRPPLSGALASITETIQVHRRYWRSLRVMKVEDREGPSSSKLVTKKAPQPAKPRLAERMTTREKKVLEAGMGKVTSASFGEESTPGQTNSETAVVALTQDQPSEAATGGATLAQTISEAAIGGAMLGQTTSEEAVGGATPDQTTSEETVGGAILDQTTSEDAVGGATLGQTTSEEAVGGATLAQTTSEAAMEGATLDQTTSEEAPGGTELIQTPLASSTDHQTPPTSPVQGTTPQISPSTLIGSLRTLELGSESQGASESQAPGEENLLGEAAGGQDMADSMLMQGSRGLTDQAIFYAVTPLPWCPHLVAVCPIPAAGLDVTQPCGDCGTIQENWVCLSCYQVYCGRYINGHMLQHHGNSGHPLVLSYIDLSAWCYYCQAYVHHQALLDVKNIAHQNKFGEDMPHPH
Source text: as §2

[5] = tested on: resistant cervix carcinoma (KB-V1/Vbl) cell line; test: Growth inhibition in KB-V1/Vbl cervix carcinoma cells; type: cell-based; details: Homo sapiens, 72 h, read-out: IC50 KB-V1/Vbl
[6] = tested on: HDAC active isolates from HeLa nuclear extract; test: Fluorescence-based HDAC activity assay, HeLa nuclear extract; details: read-out: HDAC inhibition IC50, HeLa nuclear extract; 0.5 μg extract, 25 μM Fluor-de-Lys substrate, 60 min
Protocol: as §1, §2

[7] = tested on: primary endothelial cells (HUVEC, human umbilical vein endothelial cells); test: Growth inhibition in HUVEC; type: cell-based; details: for IC50: 72 h
[8] = tested on: acetylated lysine residues in alpha-tubulin, 518A2 melanoma cells; test: Immunoblot for acetylated alpha-tubulin in 518A2 cells; type: cell-based, human; details: […] or 5 μM, 24 h, versus SAHA 5 μM
Source text: Cell lysates were subjected to gel electrophoresis and immunoblotting for acetylated lysine residues in alpha-tubulin (55 kDa).

[9] = tested on: hybrid endothelial cells (Ea.hy926); test: Growth inhibition in Ea.hy926 cells; type: cell-based; details: for IC50: Homo sapiens, EA.hy 926, 72 h
[10] = tested on: resistant breast (MCF-7/Topo) cell line; test: Growth inhibition in MCF-7/Topo breast cancer cells; type: cell-based
[11] = tested on: HDAC active isolates from HeLa cytosolic extract; test: Fluorescence-based HDAC activity assay, HeLa cytosolic extract; details: for IC50: read-out: HDAC inhibition IC50, HeLa cytosolic extract, 1 μg extract, 25 μM Fluor-de-Lys substrate, 60 min
Protocol: as §1, §2

[12] = tested on: BRAF-mutant melanoma (518A2); test: Growth inhibition (MTT) in 518A2 melanoma cells; type: cell-based, human
[13] = tested on: HDAC active isolates from HeLa nuclear extract; details: 0.5 μg extract, 25 μM Fluor-de-Lys substrate, 60 min; read-out: HDAC inhibition IC50, HeLa nuclear extract (values from Mahal et al. 2015); cited from earlier work

Sequence of recombinant human HDAC1 (Q13547 whole entry): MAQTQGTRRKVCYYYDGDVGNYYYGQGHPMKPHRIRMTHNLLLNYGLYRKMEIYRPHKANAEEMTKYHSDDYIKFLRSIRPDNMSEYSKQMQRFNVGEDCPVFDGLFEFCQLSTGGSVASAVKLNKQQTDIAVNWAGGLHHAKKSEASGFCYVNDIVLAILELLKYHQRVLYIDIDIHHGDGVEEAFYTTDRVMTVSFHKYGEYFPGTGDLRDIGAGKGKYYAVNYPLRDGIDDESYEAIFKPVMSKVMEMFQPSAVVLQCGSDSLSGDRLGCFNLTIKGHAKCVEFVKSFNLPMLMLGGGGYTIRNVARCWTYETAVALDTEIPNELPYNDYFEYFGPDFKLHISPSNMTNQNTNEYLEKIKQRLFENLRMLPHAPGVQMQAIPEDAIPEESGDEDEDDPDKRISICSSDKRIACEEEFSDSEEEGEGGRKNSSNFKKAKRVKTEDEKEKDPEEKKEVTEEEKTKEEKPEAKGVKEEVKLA

Structure (SMILES)	IC50 (recombinant human HDAC1) [nM]	fold less efficacious than vorinostat on HDAC1 (recombinant human HDAC1)	acetylation of histone proteins (H2B) and alpha-tubulin after drug treatment (518A2 melanoma cells)	IC50 ([2]; Homo sapiens, HT-29, 72 h) [nM]	IC50 [3] [nM]	IC50 (recombinant human HDAC6) [nM]	IC50 [5] [nM]	IC50 ([7]; Homo sapiens, HUVEC) [nM]	acetylated alpha-tubulin [8]	IC50 [9] [nM]	IC50 [11] [nM]	IC50 ([12]; Homo sapiens, 518A2, 72 h) [nM]	IC50 ([2]; 72 h) [nM]	IC50 ([12]; 72 h) [nM]	other results
Cn1cnc(-c2ccccc2)c1-c1ccc(/C=C/C(=O)NO)cc1 (as salt: HCl) [Compound 4, 1-Methyl-4-phenyl-5-(4′-hydroxyaminocarbonylethenyl-phenyl)-imidazole×HCl]															melting point: 189 to 190 °C
CCn1cnc(-c2ccc(OC)cc2)c1-c1ccc(/C=C/C(=O)NO)cc1 [Compound 3, 1-Ethyl-4-(4-methoxyphenyl)-5-(4′-hydroxyaminocarbonylethenyl-phenyl)-imidazole×HCl]	187 ± 37	ca. tenfold	vastly acetylated	450 ± 30	> 50000	66	2910 ± 980	1260 ± 450	much higher extent compared with cells treated with SAHA	990 ± 130	36 ± 14	950 ± 190			apoptosis induction (caspase-9-cleavage) (518A2 melanoma cells; 3-24 h): leads to apoptosis induction (caspase-9-cleavage); invasiveness of MCF-7/Topo cells [1]: significantly reduced invasiveness; diameter of bigger vessels of the tumor body ([4]; after 24 h): reduced significantly; visible side effects ([4]; mouse): did not cause any visible side effects; signs of toxicity (Tolerance in Balb/c mice; 2×20 mg/kg i.p. on two consecutive days): no signs of toxicity; weight of treated mice (Tolerance in Balb/c mice; 2×20 mg/kg i.p., day 1-7): roughly remained the same; IC50 [6]: 504 ± 24 nM; IC50 ([10]; Homo sapiens, MCF7/Topo, 72 h, read-out: IC50 MCF-7/Topo): 5600 ± 330 nM; times more active than vorinostat in the cytosolic fraction ([11]; HeLa cytosolic extract): ca. four; times more HDAC inhibiting in the cytosolic than in the nuclear fraction ([11]; HeLa cytosolic vs nuclear extract): ca. 14 times
Cn1cnc(-c2ccccc2)c1-c1ccc(/C=C/C(=O)NO)cc1 [Compound 4, 1-Methyl-4-phenyl-5-(4′-hydroxyaminocarbonylethenyl-phenyl)-imidazole×HCl]	28 ± 11	ca. twofold	vastly acetylated	1330 ± 70	> 50000	107 ± 23	5040 ± 1820	550 ± 290	much higher extent compared with cells treated with SAHA	160 ± 30	132 ± 14	2760 ± 620			IC50 [13]: 234 nM; fold stronger in primary endothelial cells compared with 3 and SAHA ([7]; HUVEC): 12 fold; fold stronger in the Ea.hy926 cell line compared with 3 and SAHA ([9]; Ea.hy926): 10 fold; IC50 ([10]; Homo sapiens, MCF7/Topo, 72 h; read-out: IC50 MCF-7/Topo): 15300 ± 1400 nM
Cn1cnc(-c2ccc(F)cc2)c1-c1ccc(C=CC(=O)NO)cc1 [Compound F-3, 1-Methyl-4-(4-fluorophenyl)-5-(4′-hydroxyaminocarbonylethenyl-phenyl)-imidazole×HCl]													1450 ± 60	1940 ± 40	
COc1ccc(-c2ncn(C)c2-c2ccc(C=CC(=O)NO)cc2)cc1 [Compound Nor-3, 1-Methyl-4-(4-methoxyphenyl)-5-(4′-hydroxyaminocarbonylethenyl-phenyl)-imidazole×HCl]													710 ± 60	1450 ± 70	IC50 [7]: 830 ± 260 nM
Cn1cnc(-c2ccccc2)c1-c1cccc(C=CC(=O)NO)c1 [Compound iso-4, 1-Methyl-4-phenyl-5-(3′-hydroxyaminocarbonylethenyl-phenyl)-imidazole×HCl]													2800 ± 70	2230 ± 60	
